Earlier results as cited in US11992479B2, “R-fadrozole for use in the treatment of aldostonerism” (priority 2018, dated 2024).
Counter-ions that a name gives are not always drawn.

Key:
plasma aldosterone = settings: 0.5 and 1.0 mg twice a day, PA patients; cited from earlier work
[1] = phase I study; cited from earlier work
DOC = settings: PA patients, cited from earlier work
basal plasma aldosterone = settings: twice daily, healthy male subjects; cited from earlier work

Structure (SMILES) | decrease of plasma aldosterone (plasma aldosterone) | elimination half-life [1] | time to peak concentration [1] [h] | DOC mean level (DOC; 1.0 mg twice-daily dose) [ng/mL] | increase of DOC (DOC; twice-daily dosing) | effect on basal plasma aldosterone levels (basal plasma aldosterone) | effect on serum potassium (basal plasma aldosterone)
N#Cc1ccc([C@H]2CCc3cncn32)c(F)c1 [LCI699] | 70-80% | approximately 4 hours | 1 | 9.8 | over 700% |  | 
N#Cc1ccc(C2CCCc3cncn32)cc1 (racemic) [Fadrozole hydrochloride] |  |  |  |  |  | only modestly affect basal plasma aldosterone levels | without significantly elevating serum potassium
